Assay results from publication PMC9873984, “Membrane cholesterol regulates inhibition and substrate transport by the glycine transporter, GlyT2” (Life Science Alliance, 2023).

Test system: Xenopus laevis oocytes
Assay: Quantification of cholesterol content of oocytes (Amplex Red)
Format: cell-based
Details: 15 mM for 30 min at 32°C; normalized to control oocytes
Protocol: The cell was then unclamped and removed from the electrophysiology rig and placed in an incubator at 32°C in a solution containing 15 mM MβCD for 30 min. The oocyte was then replaced in the electrophysiology rig and washed for 10 min in recording buffer, the voltage clamp was re-established, and the glycine transport currents were remeasured. […] Under these conditions, MβCD caused a 44% reduction in membrane cholesterol content, which is consistent with previous studies in oocytes (Fig 4) ([Santiago et al, 2001]; [Sadler & Jacobs, 2004]).
Figure 4. Cholesterol levels of control and MβCD-treated Xenopus laevis oocytes. Groups of six oocytes were incubated in 0 mM (control) or 15 mM MβCD for 30 min at 32°C. After incubation, oocytes were lysed in 1% Triton X-100 by vortexing and manually disrupting the membranes with forceps. Cell lysates were centrifuged, and the cholesterol content of the supernatant was quantified using the Amplex Red method. […]
Control and MβCD-treated oocytes were lysed in 1% Triton X-100 (Sigma-Aldrich) by vortexing and manually disrupting the membranes with forceps. […] The supernatant was then treated in accordance with the manufacturer’s protocol for the Amplex Red Cholesterol Assay Kit (Thermo Fisher Scientific) to quantify differences in cholesterol content.

Substance: methyl-β-cyclodextrin [MβCD]
- Reduction in membrane cholesterol content: 44%
